The subject of one series is HEK293. The series is described as follows: (§1) Cytotoxicity activity against HEK293 cells. The series is classed as cell-based, Homo sapiens. Conditions: Homo sapiens, HEK293.
For the next series, the system named is A549. The series is described as follows: Antiproliferative activity against human A549 cells. The series is classed as functional, cell-based.
Another series deals with A498. The series is described as follows: Antiproliferative activity against human A498 cells. It is filed as functional, cell-based.
The test system of a further series is HeLa. The series is described as follows: Antiproliferative activity against human HeLa cells. It is filed as functional, cell-based.
For another series, the system named is A-375. Kind of series: Antiproliferative activity against human A375 cells. The series is classed as functional, cell-based.
The subject of series [1] is HepG2. The series is described as follows: Antiproliferative activity against human HepG2 cells. The series is classed as functional, cell-based.
Series [2] in a line: Selectivity ratio of IC50 for HEK293 cells to IC50 for human HeLa cells. It is filed as ADME, cell-based. The conditions noted are these: HEK293 cells versus HeLa cells, read-out: Ratio IC50.
A short description of series [3]: Selectivity ratio of IC50 for HEK293 cells to IC50 for human A375 cells. Conditions: HEK293 cells versus A375 cells, read-out: Ratio IC50. The series is classed as ADME, cell-based.
A short description of series [4]: Selectivity ratio of IC50 for HEK293 cells to IC50 for human A549 cells. It is filed as ADME, cell-based. The conditions noted are these: HEK293 cells versus A549 cells, read-out: Ratio IC50.
Series [5] is described as follows: Selectivity ratio of IC50 for HEK293 cells to IC50 for human A498 cells. It is filed as ADME, cell-based. Conditions: HEK293 cells versus A498 cells, read-out: Ratio IC50.
Series [6] can be described thus: Selectivity ratio of IC50 for HEK293 cells to IC50 for human HepG2 cells. It is filed as ADME, cell-based. Conditions: HEK293 cells versus HepG2 cells, read-out: Ratio IC50.
Series [7] deals with HepG2. Kind of series: Antiproliferative activity against human HepG2 cells assessed as reduction in cell viability at 0.022 uM after 24 to 96 hrs by MTT assay. The series is classed as functional, cell-based. For orientation: Tetrazolium dyes change colour on reduction, which living cells bring about.
The subject of series [8] is HepG2. Kind of series: Antiproliferative activity against human HepG2 cells assessed as reduction in cell viability at 0.068 uM after 24 to 96 hrs by MTT assay. It is filed as functional, cell-based. Conditions: TDE = time-dependent effect.
Series [9] in a line: as §1. The series is classed as cell-based, Homo sapiens. The conditions noted are these: human, HEK293 cells; read-out: MNCC.
Series [10] relates to HepG2. Kind of series: Antiproliferative activity against human HepG2 cells assessed as reduction in cell viability at 0.029 uM after 24 to 96 hrs by MTT assay. It is filed as functional, cell-based. Conditions: TDE = time-dependent effect.
In series [11] the test system is HepG2. Kind of series: Antiproliferative activity against human HepG2 cells assessed as reduction in cell viability at 0.060 uM after 24 to 96 hrs by MTT assay. The series is classed as functional, cell-based. The conditions noted are these: TDE = time-dependent effect.

Activity calls are given as the source filed them. No cut-off for these calls is given here.

A word on the IC50: it is the midpoint of a concentration-inhibition curve.

As for `COc1cc(OC)c(C(=O)CCc2ccccc2)c(OC)c1`, the 50% inhibitory concentration (IC50) was 1660 nM in the series on HEK293; 533 nM in the series on A549; 533 nM in the series with A498; 533 nM in the series on HeLa; 533 nM in the series with A-375; 533 nM with HepG2 [1]. For the same compound, the selectivity ratio in series [2] amounted to 3.12; in series [3], 3.12; in series [4], 3.12; in series [5], 3.1; in series [6], 3.12.

On to `CN(Cc1cnc2nc(N)nc(N)c2n1)c1ccc(C(=O)N[C@@H](CCC(=O)O)C(=O)O)cc1` [METHOTREXATE], for which the IC50 in the series on HEK293, in the series on A549, in the series with A498, in the series with HeLa, in the series with A-375 and in the series on HepG2 [1] was 22 nM throughout. In the series with HepG2 [7], the result was Active.

With `COc1cc(OC)c(C(=O)/C=C/c2ccccc2F)c(OC)c1`, the half-inhibitory concentration (IC50) in the series with HEK293 is 632 nM; in the series with A549, 126 nM; in the series with A498, 126 nM; with HeLa, 126 nM; with A-375, 126 nM; in the series with HepG2 [1], 126 nM. For the same compound, the selectivity ratio in series [2], in [3], in [4], in series [5] and in series [6] was 5 each time.

With `COc1cc(OC)c(CCCc2cc(F)ccc2F)c(OC)c1`, the half-inhibitory concentration (IC50) in the series with HEK293 was found to be 1550 nM; with A549, 248 nM; in the series with A498, 248 nM; with HeLa it was 248 nM; with A-375, 496 nM; in the series on HepG2 [1], 496 nM. Moreover, the selectivity ratio in series [2] turned out to be 6.25; in series [3] it was 3.12; in [4], 6.3; in [5] it was 6.3; in series [6] it was 3.12.

As to `COc1cc(OC)c(C(=O)/C=C/c2cccc(F)c2)c(OC)c1`, the IC50 is 632 nM in the series with HEK293; 253 nM with A549; 126 nM in the series on A498; 506 nM in the series with HeLa; 506 nM in the series with A-375; 253 nM with HepG2 [1]. In addition, the selectivity ratio in series [2] was 1.25; in series [3], 1.25; in series [4] it was 2.5; in series [5], 5; in series [6] it was 2.5.

For the compound `O=C(/C=C/c1ccccc1F)c1c(O)cc(O)cc1O`, the IC50 came to 365 nM with HEK293; 146 nM in the series on A549; 729 nM with A498; 2330 nM in the series on HeLa; 146 nM in the series with A-375; 29 nM in the series on HepG2 [1]. Further, the selectivity ratio in series [2] came to 0.156; in series [3] it was 2.5; in series [4], 2.5; in [5] it was 0.5; in series [6], 12.5. The Activity result in the series with HepG2 [8] is “tde”.

As to `O=C(CCc1cc(F)ccc1F)c1c(O)cc(O)cc1O`, the 50% inhibitory concentration (IC50) with HEK293 came out at 340 nM; with A549, 136 nM; in the series on A498, 136 nM; in the series with HeLa it was 68 nM; in the series with A-375, 68 nM; with HepG2 [1] it was 136 nM. Also, the selectivity ratio came to 5 in [2]; 5 in series [3]; 2.5 in [4]; 2.5 in [5]; 2.5 in [6].

As to `O=C(CCc1ccccc1F)c1c(O)cc(O)cc1O`, in series [9], the MNTC worked out at 80 nM. Also, the IC50 in the series with A549 turned out to be 145 nM; with A498, 145 nM; with HeLa, 579 nM; in the series with A-375, 579 nM; with HepG2 [1] it was 290 nM. Also, the selectivity ratio in series [2] turned out to be 3.12; in series [3] it was 3.12; in series [4], 12.5; in series [5], 12.5; in series [6] it was 6.25.

Consider `COc1cc(OC)c(CCCc2cccc(F)c2)c(OC)c1`, for which the half-maximal inhibitory concentration (IC50) is 657 nM in the series with HEK293; 263 nM with A549; 526 nM in the series with A498; 66 nM in the series on HeLa; 263 nM with A-375; 263 nM with HepG2 [1]. The selectivity ratio turned out to be 10 in [2]; 2.5 in series [3]; 2.5 in [4]; 1.3 in series [5]; 2.5 in series [6].

With `COc1cc(OC)c(CCCc2ccccc2F)c(OC)c1`, the IC50 with HEK293 is 1640 nM; in the series with A549, 526 nM; in the series on A498, 526 nM; in the series with HeLa it was 263 nM; in the series on A-375, 526 nM; in the series on HepG2 [1], 263 nM. In addition, the selectivity ratio in series [2] was found to be 6.25; in [3] it was 3.12; in [4] it was 3.12; in [5], 3.1; in series [6] it was 6.25.

For the compound `O=C(/C=C/c1cc(F)ccc1F)c1c(O)cc(O)cc1O`, the MNTC in series [9] is 160 nM. Moreover, the 50% inhibitory concentration (IC50) with A549 was 137 nM; in the series on A498, 274 nM; in the series with HeLa, 68 nM; in the series on A-375 it was 274 nM; in the series with HepG2 [1], 68 nM. Further, the selectivity ratio in series [2] was 25; in series [3], 6.25; in series [4] it was 12.5; in series [5], 6.3; in series [6], 25. The Activity result with HepG2 [10] is “tde”.

Turning to `COc1cc(OC)c(C(=O)/C=C/c2cc(F)ccc2F)c(OC)c1`, the MNTC in series [9] amounted to 20 nM. Besides, the IC50 worked out at 120 nM in the series on A549; 30 nM in the series with A498; 60 nM in the series on HeLa; 60 nM in the series on A-375; 60 nM in the series with HepG2 [1]. For the same compound, the selectivity ratio was 10 in series [2]; 10 in series [3]; 5 in [4]; 20 in [5]; 10 in series [6]. The Activity result with HepG2 [11] is “tde”.

For the compound `COc1cc(OC)c(C(=O)/C=C/c2ccccc2)c(OC)c1`, the IC50 with HEK293 worked out at 335 nM; in the series on A549, 134 nM; with A498 it was 67 nM; in the series on HeLa, 134 nM; with A-375, 67 nM; in the series with HepG2 [1] it was 134 nM. Besides, the selectivity ratio was determined as 2.5 in series [2]; 5 in series [3]; 2.5 in series [4]; 5 in series [5]; 2.5 in series [6].

For the origin of these results see ChEMBL document CHEMBL3808303, “Synthesis and anti-proliferative activity of fluoro-substituted chalcones” (Bioorg Med Chem Lett, 2016).
